Laboratory results reported in PubChem BioAssay AID1259333 (Broad Institute, 2017).
Where “and” joins values, the source holds several entries; their conditions need not be identical. Equal entries are not always repeated. Calls of active or inactive are those of the source. How the calls were made is not given here; tested in parental BL2 cells.

Assay: loss of cell viability by ATP content – CellTiter-Glo, cytotoxicity control, dose response (AID 1259333);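 further: 0% = vehicle neutral controls and -100% = reference inhibitor positive controls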
Settings: cytotoxicity, CellTiter-Glo ATP luminescence; at 3.5 µM (top of the series)

| SMILES | activity change, negative = cytotoxicity |
| --- | --- |
| C[C@H](CO)N1C[C@H](C)[C@H](CN(C)CC2CCCCC2)Oc2ccc(NC(=O)Nc3ccc(C(F)(F)F)cc3)cc2C1=O | 32.8% (inactive) |
| Cc1[nH]c2ccccc2c1C(c1ccccn1)N1CCC(C(N)=O)CC1 (stereo not given) | 29.7% (inactive) |

Same assay, conditions: cytotoxicity, CellTiter-Glo ATP luminescence; at 10 µM (top of the series)

| SMILES | activity change, negative = cytotoxicity |
| --- | --- |
| N#C[C@H]1[C@@H](c2ccccc2-c2ccccc2)[C@@H](CO)N1C(=O)NC1CCCC1 | -17.1% (inactive) |
| CCc1cnc(N2[C@H](C#N)[C@H](c3ccc(C#Cc4ccccc4F)cc3)[C@H]2CO)s1 | 12.3% (inactive) |
| C[C@H]1CN([C@@H](C)CO)C(=O)c2c(c3ccccc3n2C)-c2ccccc2CO[C@H]1CN(C)S(=O)(=O)c1ccc([N+](=O)[O-])cc1 | 75.5% (inactive) |
| O=S(c1ccccc1O)S(=O)c1ccccc1O (stereo not given) | 40.7% (inactive) |
| O=C1CC(c2ccc3c(c2)OCO3)Sc2nc3ccccc3n21 (stereo not given) | 31.6% (inactive) |
| N#C[C@H]1[C@@H](c2ccc(C#CC3CCCCC3)cc2)[C@H](CO)N1C(=O)Nc1ccc(F)cc1 | 22.4% (inactive) |
| Cn1c(CO)nc2cc(N)ccc21 | 34.6% (inactive) |
| O=C(NCc1ccccn1)C1CCCN(S(=O)(=O)c2ccccc2)C1 (stereo not given) | 44.9% (inactive) |
| Nc1ccc(-c2cccc3c(=O)cc(N4CCOCC4)oc23)cc1 | 15.1% (inactive) |
| Cc1ccc2c(c1)C(O)(CC(=O)/C=C/C=C/c1ccccc1)C(=O)N2 (stereo not given) | 24.8% (inactive) |
| Cc1ccc(OC(=O)N(C)C[C@@H]2OCc3ccccc3-c3c(n(C)c4ccccc34)C(=O)N([C@@H](C)CO)C[C@H]2C)cc1 | 5.02% (inactive) |
| COCCn1c(C)cc(C(=O)COC(=O)c2ccc(Br)o2)c1C | 28.5% (inactive) |
| c1ccc(OCCSc2nnc3sc4ccccc4n23)cc1 | -14.5% (inactive) |
| O=C(C[C@@H]1CC[C@H]2[C@@H](COC[C@@H](O)CN2Cc2cc(F)ccc2F)O1)NCc1ccc(Oc2ccccc2)cc1 | 14.2% (inactive) |
| O=C(/C=C/c1cccs1)c1ccc(N2CCOCC2)cc1 | 23.6% (inactive) |
| CCCCCCCCCc1ccc(OCCOCCOCCOCCOCCOCCOCCOCCOCCO)cc1 | 13.3% (inactive) |
| CCC(=O)NC(c1ccccc1OC)c1ccc2cccnc2c1O (stereo not given) | 40.2% (inactive) |
| COc1cccc(OC)c1OCCNCC1COc2ccccc2O1 (stereo not given) | 48.7% (inactive) |
| Oc1cc2c(cc1C(c1ccc(Br)cc1)N1CCCC1)OCO2 (stereo not given) | 7.99% (inactive) |
| O=C(C1CCCC1)N1CC(=O)N2[C@@H](CO)[C@@H](c3ccc(C#CCc4ccccc4)cc3)[C@@H]2C1 | 53.6% (inactive) |
| COc1cccc(S(=O)(=O)N(C)C[C@@H]2OCc3ccccc3-c3c(n(C)c4ccccc34)C(=O)N([C@H](C)CO)C[C@@H]2C)c1 | 41.8% (inactive) |
| CC[C@@]1(O)C(=O)OCc2c1cc1n(c2=O)Cc2cc3cc(O)ccc3nc2-1 | 12.3% (inactive) |
| CC1CNCCN1S(=O)(=O)c1cccc2cnccc12 (stereo not given) | -37.9% (inactive) |
| COc1ccc(C#Cc2ccc([C@H]3[C@H]4CN(C(=O)c5ccncc5)CCCCN4[C@H]3CO)cc2)cc1 | 30.7% (inactive) |
| CS(=O)(=O)c1ccc(C(=O)OCC(=O)NC(=O)C2CCCCC2)cc1[N+](=O)[O-] | 42.9% (inactive) |
| CC(=O)OCC(=O)C1(O)CCC2C3CCC4=CC(=O)CCC4(C)C3(Cl)C(O)CC21C (stereo not given) | 25.5% (inactive) |
| CCN(CC(=O)Nc1ccc(NC(C)=O)cc1)C(=O)C1CCCN(C(=O)c2ccc(Cl)cc2)C1 (stereo not given) | 33.9% (inactive) |

| SMILES | activity change, negative = cytotoxicity |
| --- | --- |
| O=C(CNC(=O)c1ccco1)Nc1ccc2c(c1)OCCO2 | -6.17% (inactive) |
| O=C1C(=NO)CCc2ccccc21 | 115% (inactive) |
| O=C(CNCCO)N1N=C(c2cccs2)CC1c1cccs1 (stereo not given) | 18.9% (inactive) |
| Cc1ccc(C2(C)NC(=O)N(CC(=O)Nc3cccnc3Cl)C2=O)cc1 (stereo not given) | 21.9% (inactive) |
| COc1ccc(C=Cc2ccc3ccccc3n2)c(OC)c1 | 26.9% (inactive) |
| C(=Cc1c[nH]c2ccccc12)c1nccc2ccccc12 | 33.1% (inactive) |
| O=C(c1ccc(F)cc1)N1C[C@@H]2N[C@H](C1)C2c1ccc(/C=C/c2ccccc2)cc1 (stereo not given in full) | 12.7% (inactive) and 35.5% (inactive) |
| C[C@H]1CCCCO[C@H](CN(C)Cc2ccc(C(F)(F)F)cc2)[C@@H](C)CN([C@@H](C)CO)C(=O)c2cc(NC(=O)Nc3cccc4ccccc34)ccc2O1 | 29.1% (inactive) |
| C[C@H]1CN([C@@H](C)CO)C(=O)c2ccccc2-c2ccccc2CO[C@H]1CN(C)C(=O)[C@@H](Cc1ccccc1)N(C)C | 83.4% (inactive) |
| C[C@@H]1CN([C@H](C)CO)C(=O)c2c(c3ccccc3n2C)-c2ccccc2CO[C@H]1CN(C)C(=O)Nc1ccccc1C(F)(F)F | -16.3% (inactive) |
| Cc1ccc2nc(-c3cc(-c4ccccc4)no3)cn2c1 | 51.5% (inactive) |
| COc1cccc2c1C(=O)c1c(O)c3c(c(O)c1C2=O)C[C@@](O)(C(C)=O)C[C@@H]3O[C@H]1C[C@H](N)[C@H](O)[C@H](C)O1 | 13.8% (inactive) |
| CCOc1ccc(OCc2cccc(C(=O)N3CCOCC3)c2)cc1 | 42% (inactive) |
| Cc1ccccc1-c1ccc2c(c1)O[C@@H](CN(C)C(=O)Nc1ccc(C(F)(F)F)cc1)[C@@H](C)CN([C@@H](C)CO)S2(=O)=O | 16.7% (inactive) |
| O=C(C#Cc1ccccc1)c1ccccc1 | 43.8% (inactive) |
| N#C[C@H]1[C@H](c2ccc(C#Cc3ccc(F)cc3)cc2)[C@@H](CO)N1C(=O)C1CCC1 | -4.11% (inactive) |
| COc1ccc2c3c(n(C)c2c1)[C@H](CO)N(C(=O)Nc1ccc(F)cc1)CC31CCN(C(=O)Nc2ccc(F)cc2F)CC1 | 29.2% (inactive) |
| C/C=C/c1ccc(C2[C@H]3CNC[C@@H]2N3Cc2cccc(OC)c2)cc1 (stereo not given in full) | 18% (inactive) |
| C[C@@H]1CN([C@H](C)CO)C(=O)c2cc(NS(=O)(=O)c3cccs3)ccc2O[C@@H](C)CCCCO[C@H]1CN(C)Cc1ccc(Cl)c(Cl)c1 | 16.1% (inactive) |
| N#Cc1ccc(-c2ccc3c(c2)[C@H]2[C@H](CCN2C(=O)C2CC2)[C@@H](CO)N3)cc1 | 66.9% (inactive) |
| Oc1ccc2c(c1)OCC1(O)Cc3cc(O)c(O)cc3C21 (stereo not given) | 8.98% (inactive) |
| CC(C)(C)n1cc(C(=O)c2ccc3ccccc3c2O)cn1 | 24.3% (inactive) |
| C[C@@H]1CN([C@@H](C)CO)C(=O)Cc2cc(NS(=O)(=O)c3ccc(F)cc3)ccc2O[C@H]1CN(C)Cc1ccc(C(F)(F)F)cc1 | 20.6% (inactive) |
| CC1CC(C)CC(C)C(O)C(C#N)=CC=CCC(C2CCCC2C(=O)O)OC(=O)CC(O)C(C)C1 (stereo not given) | -8.2% (inactive) |
| Cc1cnc(NC(=O)c2ccc(OCC3CCCO3)cc2)s1 (stereo not given) | 5.83% (inactive) |
| Cc1ccc(S(=O)(=O)N[C@@H](Cc2ccccc2)C(=O)CCl)cc1 | 82.4% (inactive) |
